Measurements reported in patent US10792268B2, “Methods of sustaining dietary ketosis and its effects on lipid profile” (priority 2014, dated 2020).
Marks after values point to notes of the source that are not given here.

How the values were obtained:
Type in all cases: in vivo, Sprague-Dawley rats
[1] = Blood ketone (βHB) levels after intragastric gavage of ketone supplements; details: rats; for duration of elevated blood ketones (starting at 30 min): 5 g/kg for all four weeks
Method: (§1) Adult male Sprague-Dawley rats (n=74), 275-325 grams, were obtained from Harlan, and randomly assigned to the following groups: control (water), R,S-1,3-butanediol (BD), or R,S-1,3-butanediol acetoacetate diester (KE). Rats were treated daily with 5 g/kg intragastric gavage of BD or KE for days 1-28. Animals were weighed once per week to maintain accurate dosage using the Mittler Toledo SB16001 scales. Gavage was given between 10 am-1 pm daily to eliminate variance based on regular eating patterns. Diets were not restricted for this study.
(§2) Once a week, animals were fasted, with water still available for 4 hours prior to intragastric gavage to eliminate blood glucose and ketone variance of regular eating habits. Whole blood samples (10 μl) were acquired from the saphenous vein for analysis of glucose and βHB utilizing the commercially available glucose and ketone monitoring system Precision Xtra™ (Abbott Laboratories, Abbott Park, Ill.) at time 0, 0.5, 1, 4, 8, and 12 hours after test substance administration, or until βHB returned to baseline. On Day 0 (Week 0) and Day 28 (Week 4), whole blood samples (10 μL) were acquired for analysis of total cholesterol, HDL, and triglycerides for a lipid panel utilizing the commercially available home cholesterol analyzer Cardio Chek™ (Polymer Technology Systems, Inc., Indianapolis, Ind.) at time 0.

[2] = Blood glucose levels after intragastric gavage of ketone supplements; details: rats; for blood glucose levels, overall over the 4 weeks: 5 g/kg gavage daily; for blood glucose levels, week 1: FIG. 4(B)
Method: as §1, §2

[3] = Lipid panel (total cholesterol, HDL, triglycerides) at week 0 and week 4; details: rats, after 4-week chronic dosage, 5 g/kg
Method: as §1, §2

[4] = Change of body weight over 4 weeks of ketone supplementation; details: rats, 5 g/kg gavage daily, weekly weighing over 4 weeks
Method: as §1
Animal weights were obtained weekly (Mittler Toledo SB16001 scales).

[5] = Harvested organ weights at week 4; details: rats, versus control; for liver weight: week 4 harvested organs
Method: Animals treated from Example 1 were sacrificed by CO2 between 4-8 hours after gavage-treatment at the end of 4 weeks (28 days at the dose of 5-10 g/kg), which were determined to be peak ketone elevation. Brain, Lungs, Liver, Kidneys, Spleen and Heart were harvest and weighed using AWS-1000 1 kg portable digital scale (AWS, Charleston, S.C.). Organs were then either flash frozen in liquid nitrogen or preserved in paraformaldehyde for future analysis.

hepatocyte cell nuclei = assay: Liver histology (H&E stain) after 28 days of ketone supplementation; details: for fat deposits in liver sections / hepatocyte nucleus number, maximum / hepatocyte nucleus number, minimum / number of RBCs and capillaries in liver sections compared to control / hepatocyte nucleus number, average: rats, 28 days gavage at maximum tolerable dose (5-10 g/kg); for number of RBCs and capillaries in liver sections compared to control: data not shown; for hepatocyte nucleus number, average: minimum 5 images/animal, 5 animals/group; for hepatocyte nucleus number, significance (p, unpaired t-test versus control): significant if p < 0.05
Method: Livers from rats administered maximum tolerable dose of ketone supplementation were assessed via histology. The livers from rats treated 4-weeks with ketone supplementation appeared normal in color, size and texture in all groups upon harvesting. The livers were sectioned for histology and stained with Hematoxylin and Eosin (H&E stain), and analyzed by a trained pathologist to assess histopathological changes, including changes in liver cytoarchitecture, presence of steatosis, steatofibrosis, cell nuclei density, capillary density, presence of red blood cells (RBCs) and signs of inflammatory processes (e.g. macrophages).
The representative images are liver sections of Sprague-Dawley that were gavaged daily with water; 1,3-butanediol (BD); Ketone Ester (KE);) for 28 days at the maximum tolerable dose (5-10 g/kg). […] It should be noted that 1,3-butanediol has alcohol-like properties and requires hepatocytes to enzymatically metabolize the di-alcohol through cytosolic alcohol dehydrogenase and the induction of cytochrome p450 enzymes for conversion to βHB. The processes are associated with an increase in liver metabolism and blood flow, possibly resulting in greater number of RBCs and capillaries. There was also a modest, but statistically significant increase in hepatocyte cell nuclei, seen in Table 2, although no indications of liver damage, inflammation, fibrosis or presence of Mallory-Denk bodies were observed.

[6] = Global metabolic profiling of serum and hippocampus (GC/MS and LC/MS/MS) after 28-day treatment; details: rats
Method: Rats were treated as described in Example 1, and brain and serum samples were extracted and prepared for analysis using a standard solvent extraction method (Metabolon Inc., Durham, N.C.) at 28 days after initiation of treatment. The extracted samples were split into equal parts for analysis on the GC/MS and LC/MS/MS platforms. Instrument variability was determined by calculating the median relative standard deviation (RSD) for the internal standards that were added to each sample prior to injection into the mass spectrometers.
A total of 388 and 290 compounds were identified in serum and hippocampus samples, respectively. […] The less robust changes in the hippocampal tissue may have been due to the time frame needed to dissect the hippocampal tissue from the brain prior to flash freezing (2-4 minutes). Random Forest (RF) is a supervised classification technique reporting on the consensus of a large number of decision trees. In this study, the serum and hippocampus profiles of animals subjected to different dietary treatments were classified in order to: 1) assess the capacity to distinguish between dietary treatment on the basis of global metabolic profiles and 2) identify biochemicals important to the classification. A classification accuracy of 33% is expected by random chance when comparing three groups. For this study, classification of serum and hippocampus samples was 100% and 83% accurate, respectively, in correctly categorizing samples into their proper groups. […] In serum, the biochemical key to classifying the groups included biomarkers related to ketones, energy metabolites, medium-chain fatty acids, and ketones were key factors for hippocampal group classification.

[7] = 5 g/kg gavage, FIG. 3 (text: week 6; legend: week 4)

Row | Compound | duration of elevated blood ketones (starting at 30 min) [1] [h] | blood glucose levels, overall over the 4 weeks [2] | blood glucose levels, week 1 ([2]; 5 g/kg gavage) | Triglyceride levels at week 4 [3] | body weight increase versus control [4] | liver weight [5] | fat deposits in liver sections (hepatocyte cell nuclei) | hepatocyte nucleus number, maximum (hepatocyte cell nuclei) | hepatocyte nucleus number, minimum (hepatocyte cell nuclei) | number of RBCs and capillaries in liver sections compared to control (hepatocyte cell nuclei) | hepatocyte nucleus number, average (hepatocyte cell nuclei) | hepatocyte nucleus number, significance (p, unpaired t-test versus control) (hepatocyte cell nuclei) | also measured
1 | CC(=O)CC(=O)OCCC(C)OC(=O)CC(C)=O (centres unmarked) [KE, R,S-1,3-butanediol acetoacetate diester] | 8 | reductions in glucose levels began at 30 minutes after treatment through 4 hours | continued the trend | little change | further reduced weight gains compared to BD treatment | statistically significant reduction in liver weight | evident | 141 | 83 | trend for greater number of RBCs and capillaries | 107.80^a | 0.002 | blood glucose levels, week 0 ([2]; 5 g/kg gavage, FIG. 4(A)): reduction in glucose levels by 1 hour after treatment; blood glucose levels, week 2 ([2]; 5 g/kg gavage, FIG. 5(A)): enhanced reduction in glucose; blood glucose levels, week 3 ([2]; 5 g/kg gavage, FIG. 5(B)): moderate reductions at 4 hours after treatment; blood glucose levels, week 4 ([2]; 5 g/kg gavage, FIG. 6): reduced glucose levels through 4 hours after treatment; alpha-ketoglutarate, metabolite ratio relative to a standard diet (SD) alone ([6]; 5 g/kg, 28 days, blood serum): 1.98^a; citrate, metabolite ratio relative to a standard diet (SD) alone ([6]; 5 g/kg, 28 days, blood serum): 1.99^a; fumarate, metabolite ratio relative to a standard diet (SD) alone ([6]; 5 g/kg, 28 days, blood serum): 1.92^a; malate, metabolite ratio relative to a standard diet (SD) alone ([6]; 5 g/kg, 28 days, blood serum): 2.03^a; succinate, metabolite ratio relative to a standard diet (SD) alone ([6]; 5 g/kg, 28 days, blood serum): 1.25; brain ketone levels, elevation with respect to controls ([6]; 28-day treatment, hippocampus, FIG. 16): > 2 fold; serum ketone levels, elevation with respect to controls ([6]; 28-day treatment, serum, FIG. 15): > 15 fold
2 | C[C@H](O)CCO [BD, R,S-1,3-butanediol] | 8 | did not appear to drastically affect glucose levels | non-significant reduction | mildly elevated | modestly decreased body weight increases | not a significant change in liver weight | the most prevalence of fat deposition | 120 | 70 | trend for greater number of RBCs and capillaries | 93.56 | 0.585 | ketone bodies, peak at 4 hours ([1]; 5 g/kg gavage, FIG. 1(A), week 0): 1.0 mM/L; ketone bodies, initial peak at 30 minutes [1, 7]: around 0.8 mM/L; ketone bodies, second peak at 8 hours [1, 7]: around 0.8 mM/L; time of ketone body peak after treatment ([1]; 5 g/kg intragastric gavage daily, overall trend): 30 min; non-liver organ weight ([5]; week 4 harvested organs (brain, lungs, kidneys, spleen, heart)): no significant change in non-liver organ weight; fat deposits in liver sections (hepatocyte cell nuclei; listed as BE): evident
